From US20060030620A1, “Method for treating and/or preventing ischemia/reperfusion injury” (priority 2004, published 2006) come the findings set out here.

What all share (assay type): in vivo, Spargue-Dawley rats
In assay [1] the test system is liver ischemia/reperfusion injury. The experiment in a line: Lipid peroxidation assay (liver MDA, thiobarbituric acid method). Further details: post-ischemic MDA levels in liver: unit not given here. On the procedure:
(§1) The liver was then examined by the following assays.
(§2) The collected blood samples were centrifuged at 4000 g×5 min to separate the plasma, and the levels of aspartate transaminase (AST), alanine transaminase (ALT), and alkaline phosphatase (ALP) in the bile juice were measured with an auto-analyzer (model H-747E, Hitachi Co., Tokyo). Lipid peroxide was followed as Masugi and Nagamura stated by thiobarbituric acid method using malondialdehyde (MDA) tetraethyl acetal as the standard and expressed results of MDA equivalents.
(§3) Protein contents of the collected tissues were assayed with Lowry using bovine serum albumin as the standard. The collected tissue was fixed in saline buffered with 10% formaldehyde solution, embedded in paraffin wax, sliced into 5 μm thickness of each, stained with H&E staining method, and examined with a light microscope by a pathologist independently.
(§4) Each data was expressed as mean±SD.

Assay [2] shares this test system. The experiment in a line: Bile flow during hepatic ischemia/reperfusion.
Text: as §1, §4

Assay [3] shares this test system. Put plainly: Plasma AST/ALT during hepatic ischemia/reperfusion. On the procedure: as §1, §2, §4
Assay [4] has the same test system. Put plainly: Histological investigation of the liver after hepatic I/R (H&E). Particulars: 70 minutes of ischemia and 120 minutes of reperfusion; MA-treated ischemia group. The procedure:
as §1, §3
Histological changes in liver after hepatic I/R were kept with the above biochemical experiments of plasma and bile juice analysis. The placebo group was shown on A (100×) and B (400×); wherein “1” is severe endothelial damage, “2” is bile duct dilation, “3,” is parenchyma edema with RBC congestion, “4,” is Cholestasis, and “5” is hepatocyte necrosis. […] The dilated bile duct might be attributed to ischemic process when the clamp was used to stop the blood flow and simultaneously obstruct the bile flow. Parenchyma edema and RBC congestion might develop from the inflammatory process during I/R process.

For assay [5] the test system is unchanged. The experiment in a line: Bile juice ALP during hepatic ischemia/reperfusion. Particulars: after 120 minutes of reperfusion, MA 100 mg/kg. The procedure:
as §1, §2, §4

The mark [6] stands for this setting: after 60 minutes of reperfusion, P<0.05.
[7] abbreviates: MA 100 mg/kg iv 10 min prior to reperfusion, 70 min ischemia, after 120-minute reperfusion, mean±SD.
Where [8] appears, read: after 120 minutes of reperfusion, MA 100 mg/kg iv.

In the case of Magnesium ascorbate, the “post-ischemic MDA levels in liver” value in assay [1] (70 min ischemia and 120 min reperfusion, MA 100 mg/kg 10 min prior to reperfusion, mean±SD, P<0.02) amounted to 1054±414. Moreover, in assay [1] (MA 100 mg/kg infusion 10 minutes prior to reperfusion, after 120 minutes of reperfusion), the “MDA concentration in liver tissue versus vehicle-treated ischemia group” value is listed as “significantly decreased”. Moreover, in assay [2] (P=0.21), the “bile flow compared with the control group (sham)” value is “significantly restored resemble to normal values”. Further, in assay [2] (setting [6]), the “choleretic effect compared with the placebo group” value is on record as “significantly increased”. In assay [2] (after 120 minutes of reperfusion injury), the “secreted bile juice versus vehicle-treated ischemia group” value is “significantly doubled”. Besides, the bile flow in assay [2] (after 120 minutes of reperfusion, MA 100 mg/kg iv, mean±SD) amounted to 1.353 ± 0.351 mL/h/kg. The “bile flow compared with the vehicle-treated ischemia group” value in assay [2] (from 60 minutes to 240 minutes of reperfusion, P<0.05) is on record as “significantly restored”. Moreover, the “increase in AST and ALT activity versus vehicle-treated ischemia rats” value in assay [3] (1 to 4 hours after reperfusion, MA 100 mg/kg, P<0.05) is on record as “significantly suppressed”. Further, in assay [3] (setting [7]), the “average plasma AST level” value stood at 2040±882 U/l and the “plasma ALT level” value came to 4466±1745 U/l. The “plasma AST levels compared with the placebo group” value in assay [3] (after 30 minutes of reperfusion, P<0.05) is “significantly decreased”. Moreover, the “plasma AST levels compared with the placebo group” value in assay [3] (setting [6]) is “significantly decreased”. In assay [3] (setting [8]), the “decrease of the elevated serum ALT level” value was 69% and the “decrease of the elevated serum AST level” value was found to be 78%. For the same substance, the “histological findings of the liver (H&E)” value in assay [4] was “minor lesions were observed, damaged to the vascular endothelium and cholestasis was also mild”. The “relief of the ALP in bile juice from I/R damage” value in assay [5] is “about 70%”. The “bile ALP” value in assay [5] (mean±SD) was 34.5±8.3 U/l.
